From paper PMC4912613, “A broad analysis of resistance development in the malaria parasite” (Nature Communications, 2016)

Key:
P. falciparum = experiment: Rate of killing (parasite viability) assay; type: cell-based, Plasmodium falciparum; conditions: profile compared with chloroquine, pyrimethamine, atovaquone; 48 h treatment
Experimental: To identify whether selection success could be predicted by compound speed of action, and to gain a greater insight into the potential mechanisms of action, assays were performed to test the killing rate (Supplementary Data 1)[33]. To quantify the killing rate, viability time-course profiles for each compound were compared with antimalarials known to have fast (chloroquine), moderate (pyrimethamine) or slow (atovaquone) rate of action. These rates were then compared with other compound characteristics, including cross-resistance profile, selection success, potency and structural characteristics to identify any possible trends. […] One compound's rate of killing, MMV666080, was unidentifiable due to compound availability. No correlation was seen between compound structure and speed of action. Additionally, there was no correlation found between killing rate and compound potency against 3D7, nor between potency and selection success (Supplementary Fig. 2).
Rate of killing was determined for each compound following a previously described methodology, which uses the invasion of fresh erythrocytes as surrogate of parasite viability. Briefly, parasites were treated with compounds for 48 h. Compound was washed out and fresh-labelled erythrocytes added to the treated parasites. Double stained erythrocytes (RBC label plus parasite DNA label) were quantified and per cent of survival determined.

[1] = system: NITD609-R2 (PfATP4 T418N and P990R, parent Dd2); experiment: Cross-resistance EC50 assay, NITD609-R2; type: cell-based; conditions: Plasmodium falciparum, SYBR green 72 hour assay, asynchronized parasites, 96-well or 1536-well format
From the text: To evaluate potential overlapping activity against known antimalarial drug targets, we performed dose-response studies with each compound against our assembled set of drug-resistant lines and their corresponding parents, in an asexual blood stage proliferation assay (Table 1). Comparisons were made to the drug-sensitive strain 3D7 when a parent was unavailable (TM90C2A, W2 and Dd2). As laboratories conducted EC50 assays with different strains and protocols, all comparisons were made between assays from the same laboratory and under the same assay conditions. Compounds displaying >5-fold EC50 shifts relative to the parent or sensitive strain were flagged as having potentially non-novel targets. Average fold shifts per strain ranged from 0.82 to 2.34, with a median of 1.23 indicating there was not common resistance to any one resistant clone. No resistance patterns were observed when classifying the compounds based on chemical structure, but this was not surprising given the diversity of compounds chosen. On the other hand, given that these confirmed compounds were derived from larger unconfirmed hit lists to which some filtration criteria may have been applied (for example, elimination of obvious dihydrofolate reductase inhibitors[32]), some[10][11][12][13] pre-existing bias may exist in the set. […]
Alternatively, a SYBR Green-based proliferation approach was used for the 72-h assay, as previously described. Briefly, a culture of either synchronized or asynchronous parasitized RBCs (0.3% parasitemia and 4% haematocrit) in screening medium (identical to supplemented medium above except no serum was added) was exposed to serial drug dilutions. Plates were incubated at 37 °C and gassed with 93% N2, 4% CO2 and 3% O2 for 72 h. Following incubation, 10 × SYBR Green I (Invitrogen; supplied in 10,000 × concentration) in lysis buffer ([…], 5 mM EDTA, 0.16% Saponin wt per vol and 1.6% Triton X vol per vol) was added to the wells and the plates were incubated overnight at room temperature before plate reading. EC50 assays were repeated three times, taking the average EC50 value from each assay set, and removing any outliers using a single iteration of Grubbs' test, eliminating values with z-scores above the critical z-value (α=0.05). The raw EC50 values for synchronized parasites assayed in a 384-well format are listed in Supplementary Data 4. The raw EC50 values for asynchronous parasites assayed in a 96 or 1536-well format are listed in Supplementary Data 5.
(§1) EC50 values for each strain were compared with those of the corresponding parent strain to determine fold-shift changes and identify resistance. To minimize the cause variance between assays, all comparisons were conducted between strains assayed under identical conditions. A one-way ANOVA followed by a Dunnet's post-test was conducted in GraphPad Prism to identify significant changes between the parent and resistant strain.

[2] = system: TM90C2A (DHFR, folate pathway; compared with 3D7); experiment: Cross-resistance EC50 assay, TM90C2A; type: cell-based; conditions: Plasmodium falciparum, 48 h, read-out: TM90C2A (3D7 Parent) Average EC50
From the text: To evaluate potential overlapping activity against known antimalarial drug targets, we performed dose-response studies with each compound against our assembled set of drug-resistant lines and their corresponding parents, in an asexual blood stage proliferation assay (Table 1). Comparisons were made to the drug-sensitive strain 3D7 when a parent was unavailable (TM90C2A, W2 and Dd2). As laboratories conducted EC50 assays with different strains and protocols, all comparisons were made between assays from the same laboratory and under the same assay conditions. Compounds displaying >5-fold EC50 shifts relative to the parent or sensitive strain were flagged as having potentially non-novel targets. Average fold shifts per strain ranged from 0.82 to 2.34, with a median of 1.23 indicating there was not common resistance to any one resistant clone. No resistance patterns were observed when classifying the compounds based on chemical structure, but this was not surprising given the diversity of compounds chosen. On the other hand, given that these confirmed compounds were derived from larger unconfirmed hit lists to which some filtration criteria may have been applied (for example, elimination of obvious dihydrofolate reductase inhibitors[32]), some[10][11][12][13] pre-existing bias may exist in the set.
The 48-h assay was carried out in a 96-well format following standard methods using the ^3H-hypoxanthine incorporation assay. The raw EC50 values corresponding to this assay can be found in Supplementary Data 3. Briefly, this assay relies on the parasite incorporation of labelled hypoxanthine that is proportional to P. falciparum growth. A culture of parasitized RBCs (0.5% parasitemia with a percentage of ring stage higher than 70% of total parasitemia, 2.0% haematocrit) in RPMI-1640, […] and 5 μM hypoxanthine was exposed to drug serial dilutions. Plates were incubated for 24 h at 37 °C, 5% CO2, 5% O2 and 90% N2. After 24 h of incubation, ^3H-hypoxanthine was added and plates were incubated for an additional 24-h period. After that, parasites were harvested on a glass fibre filter using a TOMTEC Cell Harvester 96. Filters were dried and melt-on scintillator sheets were used to determine the incorporation of ^3H-hypoxanthine. Radioactivity was measured using a microbeta counter. Data were normalized using the incorporation of the positive (parasitized RBCs without drug) and negative (same culture with artesunate at 2 μM) controls. All assays were conducted in triplicate using three independently grown cultures, and EC50 values were determined using the XLfit add-in module for Excel (version 2.3.1) from Grafit (version 5.3.1.3), where parameter h is the assay hill slope, x is the compound concentration and y is the inhibition of growth effect. The XLfit equation is: […]
as §1

Structure (SMILES)	Killing Rate (P. falciparum)	EC50 [1]	EC50 [2]
COC(=O)c1ccc(C2C3=C(O)CC(c4ccc(F)cc4)CC3=Nc3ccccc3N2C(=O)c2ccccc2)cc1 (stereo not drawn) [MMV011438]	ATQ (slow)	0.306 µM	322 nM
CN(C)CCCN(C)C(=O)C1Cc2cc(-c3ccccc3)ccc2N1S(=O)(=O)c1ccccc1 (stereo not drawn) [MMV028895]	ATQ (slow)	2.17 µM	253 nM
CN(C)S(=O)(=O)c1cc(-c2ccc3nccc(-c4cccc(S(N)(=O)=O)c4)c3c2)cnc1N [MMV024038]	PYR/CQ (moderate)	0.958 µM	194 nM
COc1ccc(-c2nc(NC(=O)Cc3ccc4c(c3)OCCO4)sc2C)cc1 [MMV019719]	CQ (fast)	0.328 µM	210 nM
COCCNCC(O)Cn1c2ccc(Cl)cc2c2cc(Cl)ccc21 (stereo not drawn) [MMV019017]	CQ (fast)	0.456 µM	868 nM
CCOc1cc2c(cc1OCC)C(c1cc(Cl)ccc1O)NCC2 (stereo not drawn) [MMV000478]	CQ (fast)	0.661 µM	1440 nM
COc1cc(-c2nc(-c3ccccc3)c(-c3ccccc3)[nH]2)cc(OC)c1O [MMV020750]	PYR (moderate)	1.22 µM	674 nM
OC(CNC1CCCCC1)Cn1c2ccccc2c2ccccc21 (stereo not drawn) [MMV009063]	CQ (fast)	0.411 µM	537 nM
CCN(CC)S(=O)(=O)c1ccc(-c2csc(Nc3ccc(C)c(C)c3)n2)cc1 [MMV009108]	ATQ (slow)	0.574 µM	445 nM
CC(C)(C)OC(=O)N1CCN(c2ccccc2NC(=O)c2cccc(C(F)(F)F)c2Oc2ccc(F)cc2)CC1 [MMV030666]	PYR (moderate)	0.221 µM	544 nM
O=C(Nc1ccsc1C(=O)NC1CCCCC1)c1ccc(F)cc1 [MMV665939]	ATQ (slow)	1.4 µM	1350 nM
O=C(Nc1ccccc1O)c1ccc(Oc2cccc(C(=O)Nc3ccccc3O)c2)cc1 [MMV665888]	PYR (moderate)	0.812 µM	1040 nM
O=C(NCC(CCCN1CCC(c2c[nH]c3ccccc23)CC1)c1ccccc1)Nc1ccc(Cl)c(Cl)c1 (stereo not drawn) [MMV029272]	PYR (moderate)	0.152 µM	415 nM
COc1cc(-c2nc(-c3ccccc3)c(-c3ccccc3)[nH]2)ccc1OCCN(C)C [MMV027496]	PYR/CQ (moderate)	0.755 µM	300 nM
CCCCCCCN(Cc1ccc(OC(C)(C)C(=O)OCC)cc1)C(=O)Nc1ccc(Cl)cc1OCC [MMV021735]	ATQ (slow)	0.773 µM	891 nM
